Results on one substance are retold here after ChEMBL document CHEMBL3627609, “A fragment of the Escherichia coli ClpB heat-shock protein is a micromolar melanocortin 1 receptor agonist” (Bioorg Med Chem Lett, 2015).

Experiment [1] addresses Melanocortin receptor 4 (Mus musculus) (UniProt P56450). The experiment can be described thus: Antagonist activity at mouse melanocortin 4 receptor expressed in HEK293 cells using NDP-MSH as agonist by Schild analysis. The class given is cell-based.
For experiment [2], the target named is Melanocortin receptor 3 (Mus musculus) (UniProt P33033). The experiment is described as follows: Antagonist activity at mouse melanocortin 3 receptor expressed in HEK293 cells using NDP-MSH as agonist by Schild analysis. The class given is cell-based.
Sequence of Melanocortin receptor 3 (Mus musculus) (P33033 whole entry): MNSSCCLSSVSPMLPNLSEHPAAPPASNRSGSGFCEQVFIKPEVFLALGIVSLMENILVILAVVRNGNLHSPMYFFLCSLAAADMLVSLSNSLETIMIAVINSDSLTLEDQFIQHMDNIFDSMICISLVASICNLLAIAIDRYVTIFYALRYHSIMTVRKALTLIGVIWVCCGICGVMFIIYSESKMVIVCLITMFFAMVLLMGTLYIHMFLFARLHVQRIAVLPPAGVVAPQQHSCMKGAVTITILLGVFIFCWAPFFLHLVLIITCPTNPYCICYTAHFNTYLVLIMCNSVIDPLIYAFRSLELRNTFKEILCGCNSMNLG
In experiment [3] the target is Melanocyte-stimulating hormone receptor (Mus musculus, UniProt Q01727). The experiment is described as follows: Agonist activity at mouse melanocortin 1 receptor expressed in HEK293 cells by AlphaScreen cAMP assay. The class given is functional, cell-based. In general terms: Alpha assays give light when donor and acceptor beads are brought close together.
Sequence of Melanocyte-stimulating hormone receptor (Q01727 whole entry): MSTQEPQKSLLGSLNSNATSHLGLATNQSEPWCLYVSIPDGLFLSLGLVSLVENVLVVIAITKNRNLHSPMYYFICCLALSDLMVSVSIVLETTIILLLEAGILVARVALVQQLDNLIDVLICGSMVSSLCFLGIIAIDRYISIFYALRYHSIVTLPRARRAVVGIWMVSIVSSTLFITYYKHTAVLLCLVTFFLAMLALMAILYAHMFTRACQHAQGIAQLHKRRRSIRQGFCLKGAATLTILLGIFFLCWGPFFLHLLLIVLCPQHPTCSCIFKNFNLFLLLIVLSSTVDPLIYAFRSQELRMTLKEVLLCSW
The target in a further experiment is Melanocortin receptor 4 (Mus musculus, UniProt P56450). The experiment can be described thus: Agonist activity at mouse melanocortin 4 receptor expressed in HEK293 cells by AlphaScreen cAMP assay. The experiment is classed as functional, cell-based.
Sequence of Melanocortin receptor 4 (P56450 whole entry): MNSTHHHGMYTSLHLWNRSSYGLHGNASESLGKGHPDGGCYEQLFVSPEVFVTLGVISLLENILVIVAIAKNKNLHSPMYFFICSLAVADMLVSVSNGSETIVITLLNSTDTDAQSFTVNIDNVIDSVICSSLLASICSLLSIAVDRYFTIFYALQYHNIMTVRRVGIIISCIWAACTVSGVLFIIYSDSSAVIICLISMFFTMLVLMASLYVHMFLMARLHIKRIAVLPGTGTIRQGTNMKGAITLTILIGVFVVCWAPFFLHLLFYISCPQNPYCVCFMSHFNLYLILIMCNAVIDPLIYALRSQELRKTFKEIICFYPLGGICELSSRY
Experiment [4] concerns the target Melanocortin receptor 3 (Mus musculus) (UniProt P33033). The experiment is described as follows: Agonist activity at mouse melanocortin 3 receptor expressed in HEK293 cells at 100 uM by AlphaScreen cAMP assay. The experiment is classed as functional, cell-based.
Experiment [5] addresses Melanocortin receptor 5 (Mus musculus) (UniProt P41149). The experiment can be described thus: Agonist activity at mouse melanocortin 5 receptor expressed in HEK293 cells at 100 uM by AlphaScreen cAMP assay. The experiment is classed as functional, cell-based.

The EC50 is the concentration that produces a half-maximal response.

Calls of active or inactive are those of the source. No cut-off for these calls is given here.

Sequence of Melanocortin receptor 4 (Mus musculus) (P56450 whole entry): as above
Sequence of Melanocortin receptor 5 (Mus musculus) (P41149 whole entry): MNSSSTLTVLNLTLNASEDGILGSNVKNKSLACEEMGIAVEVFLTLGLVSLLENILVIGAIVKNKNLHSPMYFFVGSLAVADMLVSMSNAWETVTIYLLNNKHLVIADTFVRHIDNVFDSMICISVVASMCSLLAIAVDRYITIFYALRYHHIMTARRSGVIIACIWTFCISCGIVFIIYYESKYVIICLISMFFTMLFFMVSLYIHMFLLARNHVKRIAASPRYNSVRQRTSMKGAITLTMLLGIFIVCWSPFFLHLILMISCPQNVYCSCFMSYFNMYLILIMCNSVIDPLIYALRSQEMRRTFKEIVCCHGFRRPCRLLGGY

In the case of Ac-EIAEVLARWTGIPV-NH2, the inhibition result in experiment [1] and in experiment [2] was “inactive” each time. Further, the half-maximal effective concentration (EC50) was 41 µM in experiment [3] and greater than 100 µM on Melanocortin receptor 4. The Activity in experiment [4] came out at 30%; in experiment [5], 50%.
